Series [1] deals with T1, low affinity form of PDE 4 (human monocyte PDE 4 / hrPDE) (Homo sapiens, UniProt P27815).
T1 construct: made in house; host or cells: yeast
Briefly: PDE 4 catalytic activity assay (low affinity form, LPDE 4). The format is biochemical. To be noted: HPDE 4 IC50/LPDE 4 IC50.
Text: Overall, most of the recombinant PDE 4 expressed in this system exists as LPDE 4 and only a small fraction as HPDE 4. Consequently, inhibition of recombinant PDE 4 catalytic activity primarily reflects the actions of compounds at LPDE 4. Inhibition of PDE 4 catalytic activity can thus be used as an index of the potency of compounds at LPDE 4.

Series [2] concerns the target high affinity rolipram binding site of PDE 4. In words: [3H]-rolipram binding competition assay (high affinity form, HPDE 4). The following applies: competition for 1 nM [3H]-rolipram, rat brain high speed supernatants, 1 hour at 30° C.
Experimental: Rat brain high speed supernatants were used as a source of protein. […] The assay was run for 1 hour at 30° C. The reaction was terminated and bound ligand was separated from free ligand using a Brandel cell harvester. Competition for the high affinity binding site was assessed under conditions that were identical to those used for measuring low affinity PDE activity, expect that [^3H]-cAMP and [^3H]5′-AMP were not present.
For series [3], the system named is TNFα production from isolated human monocytes; acid secretion in isolated rabbit parietal glands. In words: Therapeutic index, in vitro comparison: TNFα suppression in human monocytes versus acid secretion in rabbit parietal glands. Type of series: cell-based. The following applies: in comparison with R-rolipram.
Experimental: Samples were then centrifuged and radioactivity in aliquots of the supernatant fraction and pellet were determined. […] The data were expressed as a percent of a response produced by a maximal concentration of histamine (100 μM). EC50 values were determined by linear interpolation using the maximum response obtained for each compound.
TNFα inhibition was assessed in human peripheral blood monocytes which were purified (Collata) from freshly obtained buffy coats or plasma-phoresis residues of blood from normal human donors. […] The cells were allowed to adhere for 1 hr, after which time the supernatant was aspirated and 1 ml of fresh medium (RPMI-1640 containing 1% fetal calf serum and penicillin/streptomycin at 10 U/ml) was added. The cells were incubated for 45 min in the presence or absence of test compounds at concentrations ranging from 1 nM to 1 mM prior to the addition of LPS (E. coli. 055:B5, Sigma Chemicals) to yield a final concentration of 100 ng/ml. […]
Levels of TNFα were measured using a ELISA (Winston) employing a murine monoclonal anti-human TNFα antibody (see below) as the capture antibody and a polyclonal rabbit antihuman TNFα as the second antibody. […] TNFα levels in samples were calculated from a standard curve generated with recombinant human TNFα produced in E. coli. […]
For series [4], the system named is acid secretion. The following applies: rats, particularly in combination with an activator of adenylate cyclase such as histamine; cited from earlier work.
In series [5] the test system is COPD. In words: Administration to humans suffering from COPD. Type of series: in vivo, human. As for the experimental part: As regards treating COPD, the compound cis-[4-cyano-4-(3-cyclopentyloxy-4-methoxyphenyl)cyclohexan-1-carboxylate] was administered to humans suffering from COPD.
For series [6] the following is noted: clinical studies; cited from earlier work.

T1 sequence (P27815 1-686 isoform P27815-3): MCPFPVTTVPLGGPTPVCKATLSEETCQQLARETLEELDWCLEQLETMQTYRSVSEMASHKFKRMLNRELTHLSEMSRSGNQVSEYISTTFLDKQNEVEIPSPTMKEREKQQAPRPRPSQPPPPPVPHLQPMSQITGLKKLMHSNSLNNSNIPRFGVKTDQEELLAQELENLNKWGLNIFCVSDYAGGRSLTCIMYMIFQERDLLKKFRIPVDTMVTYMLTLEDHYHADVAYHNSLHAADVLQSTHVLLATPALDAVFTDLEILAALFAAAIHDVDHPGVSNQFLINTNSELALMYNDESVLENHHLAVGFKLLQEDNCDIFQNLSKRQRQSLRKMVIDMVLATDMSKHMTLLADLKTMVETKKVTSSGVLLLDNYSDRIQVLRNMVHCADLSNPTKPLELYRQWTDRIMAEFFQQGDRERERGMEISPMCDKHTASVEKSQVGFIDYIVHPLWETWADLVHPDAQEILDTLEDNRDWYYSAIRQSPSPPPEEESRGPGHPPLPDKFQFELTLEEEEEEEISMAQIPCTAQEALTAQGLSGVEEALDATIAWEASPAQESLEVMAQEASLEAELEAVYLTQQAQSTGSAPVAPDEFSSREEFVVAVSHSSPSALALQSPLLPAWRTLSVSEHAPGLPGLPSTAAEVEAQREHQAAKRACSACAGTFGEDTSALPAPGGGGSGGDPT

On to `COc1ccc([C@@H]2CC[C@H](C(=O)O)C2)cc1OC1CCCC1` (relative stereo) [cis-[3-(3-cyclopentyloxy-4-methoxyphenyl)cyclopentane-1-carboxylate]], for which, in series [1], the “High/Low Ratio (IC50 high affinity form divided by IC50 low affinity form)” value amounted to 0.0078. In series [2], the IC50 (commonly the concentration needed to halve the response being measured) was determined as 21 nM.

For the molecule `COc1ccc(C2CN(Cc3ccc(N)cc3)C(=O)N2)cc1OC1CCCC1` (centres unmarked) [1-(4-aminobenzyl)-4-(3-cyclopentyloxy-4-methoxyphenyl)-2-imidazolidinone], in series [1], the “High/Low Ratio (IC50 high affinity form divided by IC50 low affinity form)” value is 0.07.

In the case of `COc1ccc(C2CCC(c3nnn[nH]3)C2)cc1OC1CCCC1` (centres unmarked) [1-(5-tetrazole)-3-(3-cyclopentyloxy-4-methoxyphenyl)cyclopentane], the “High/Low Ratio (IC50 high affinity form divided by IC50 low affinity form)” value in series [1] is listed as 0.0018.

Consider `COC(=O)C1CC(C#N)(c2ccc(OC(F)F)c(OCC3CC3)c2)CCC1=O` (centres unmarked) [2-carbomethoxy-4-cyano-4-(3-cyclopropylmethoxy-4-difluoromethoxyphenyl)cyclohexan-1-one], for which the “improvement in therapeutic index” value in series [3] was 100 fold.

Turning to `COc1ccc(C2CCN(Cc3ccc(NC(=NC#N)SC)cc3)C2=O)cc1OC1CCCC1` (centres unmarked) [3-(cyclopentyloxy-4-methoxyphenyl)-1-(4-N′-[N2-cyano-S-methyl-isothioureido]benzyl)-2-pyrrolidone], the “High/Low Ratio (IC50 high affinity form divided by IC50 low affinity form)” value in series [1] is given as 0.30.

Take `CCOC(=O)C=C1C[C@H](c2ccc(OC)c(OC3CCCC3)c2)CN1` [(R)-(+)-ethyl [4-(3-cyclopentyloxy-4-methoxyphenyl)pyrrolidine-2-ylidene]acetate]: the “High/Low Ratio (IC50 high affinity form divided by IC50 low affinity form)” value in series [1] is on record as 2.143.

For `CCOC(=O)C=C1C[C@@H](c2ccc(OC)c(OC3CCCC3)c2)CN1` [(S)-(−)-ethyl[4-(3-cyclopentyloxy-4-methoxyphenyl)pyrrolidine-2-ylidene]acetate], the “High/Low Ratio (IC50 high affinity form divided by IC50 low affinity form)” value in series [1] is “.98”.

As to `CC(C)Cn1c(=O)n(C)c(=O)c2[nH]cnc21` [IBMX, reference compound], in series [1], the “High/Low Ratio (IC50 high affinity form divided by IC50 low affinity form)” value was 0.698.

As to `NC(=O)C(=O)NCCc1ccc(OC(F)F)c(OC(F)F)c1` [N-[2-(3,4-bisdifluoromethoxy-phenyl)ethyl]oxamide], the “High/Low Ratio (IC50 high affinity form divided by IC50 low affinity form)” value in series [1] came out at 0.25.

`COc1ccc(CCNC(=O)C(N)=O)cc1OC1CCCC1` [N-[2-(3-cyclopentyloxy-4-methoxyphenyl)ethyl]oxamide]: the “High/Low Ratio (IC50 high affinity form divided by IC50 low affinity form)” value in series [1] is 0.013.

In the case of `CCCCOc1cc(CC2CNC(=O)N2)ccc1OC` (centres unmarked) [Ro 20-1724], in series [4], the acid secretion result is recorded as “enhance acid secretion”.

For the molecule `COc1ccc(C2(C#N)CCC(C(=O)O)CC2)cc1OC1CCCC1` (stereo not drawn) [cis-[4-cyano-4-(3-cyclopentyloxy-4-methoxyphenyl)cyclohexan-1-carboxylate]], the “effect in subjects suffering from COPD” value in series [5] was “reduced inflammation, bronchodilation and pulmonary neuromodulation”.

Take `N#CC1(c2ccc(OC(F)F)c(OCC3CC3)c2)CCC(O)CC1` (stereo not drawn) [cis-[4-cyano-4-(3-cyclopropylmethoxy-4-difluoromethoxyphenyl)cyclohexan-1-ol]]: in series [3], the “improvement in therapeutic index” value came out at 100 fold.

Consider `OCCN(CCO)c1nc(N2CCCCC2)c2nc(N(CCO)CCO)nc(N3CCCCC3)c2n1` [dipyridamole, reference compound], for which, in series [1], the “High/Low Ratio (IC50 high affinity form divided by IC50 low affinity form)” value is listed as 6.25.

Turning to `COc1ccc(C2CNC(=O)C2)cc1OC1CCCC1` (centres unmarked) [rolipram], in series [6], the side effects entry was “has psychotropic activity and produces gastrointestinal effects”. For the same molecule, the acid secretion result in series [4] is recorded as “enhance acid secretion”.
